The nature of series [1]: Deoxygenation of air-saturated buffered distilled water (oxygen meter), time for removal of dissolved oxygen. To be noted: pH 9.5, about 25° C.; for T1/2, time required for removal of half of the dissolved oxygen: 2.4×10^-4 moles dissolved O2; for T9/10, time for removal of 90% of the oxygen: measured if under 10 minutes. How it is done: Weighed amounts of this compound were placed in 100 ml volumetric flasks and diluted with deoxygenated, deionized water. Aliquots of this mixture were injected in the test cell as shown in Example 4.
Again, weighed amounts of this compound were placed in 100 ml volumetric flasks and diluted with deoxygenated, deionized water. Aliquots of this mixture were injected into the test cell as shown in Example 4.
These deoxygenation measurements were run in a one liter round bottom flask equipped with a small septum-covered side arm and a standard taper joint into which was inserted the probe of an oxygen meter (Model 54 made by Yellow Springs Instrument Co. of Yellow Springs, Ohio). For each test, the flask was filled with air-saturated, buffered (with Na2 CO3 /NaHCO3 to pH of 9.5) distilled water. The amount of dissolved O2 content in the water was 2.4×10^-4 moles.
After filling with water, the probe was inserted into the flask and a sample of the compound made in Examples 1, 2, or 3 was injected through the side arm.
The times required for removal of half of the dissolved oxygen were measured (T1/2). Also, the times for removal of 90% of the oxygen (T9/10) were also measured if under 10 minutes.

Series [2] is described as follows: Water solubility (remark). Format: physicochemical.
The mark [3] stands for this setting: amount of compound 2.4 × 10^-4 moles.
Setting [4] is: amount of compound 7.2 × 10^-4 moles.
Setting [5] is: amount of compound 12.0 × 10^-4 moles.

In the case of `CCC1=NN=C(CC)NN1` [3,6-diethyl-1,2-dihydro-1,2,4,5-tetrazine], the “T1/2, time required for removal of half of the dissolved oxygen” value (from here on “T1/2, time required for removal”) in series [1] (setting [3]) was 7.5 min; in series [1] (setting [4]), 0.9 min; in series [1] (setting [5]), 0.6 min. The “T9/10, time for removal of 90% of the oxygen” value in series [1] (setting [4]) turned out to be 1.5 min; in series [1] (setting [5]) it was 0.9 min.
Regarding `CC1=NN=C(C)NN1` [3,6-dimethyl-1,2-dihydro-1,2,4,5-tetrazine], in series [1] (setting [4]), the “T1/2, time required for removal” value was 1.5 min and the “T9/10, time for removal of 90% of the oxygen” value was found to be 2.2 min. Further, in series [1] (setting [5]), the “T1/2, time required for removal” value stood at 0.12 min and the “T9/10, time for removal of 90% of the oxygen” value turned out to be 0.30 min.
For the compound `c1ccc(C2=NNC(c3ccccc3)=NN2)cc1` [3,6-diphenyl-1,2-dihydro-1,2,4,5-tetrazine], in series [2], the water solubility entry was “limited water solubility”. For the same compound, in series [1] (setting [3]), the “T1/2, time required for removal” value came out at 6 min.
Regarding `NN` [hydrazine, reference compound], in series [1] (setting [5]), the “T1/2, time required for removal” value is more than 10 min.

Source of the values: patent US4389327A, “Use of selected 1,2-dihydro-1,2,4,5-tetrazines as oxygen-scavenging agents” (priority 1982, dated 1983).
